From US20170354726A1, “CANCER PEPTIDE VACCINE” (Green Peptide Co., Ltd., priority 2010, published 2017)
Ends that are not written are not given here.

Legend:
Assay type in all cases: in vivo, human
[1] = system: antibody to a peptide in the peripheral blood of glioblastoma patients; assay: Antibody to peptide in plasma (FIU, Luminex) of glioblastoma patients; settings: brain tumor, patients given this peptide
Experimental: (§1) An antibody to a peptide in the peripheral blood of patient was measured using a multiplex technology provided by Luminex Corporation by a method as described in Japanese Patent No. 3960614 (incorporated herein by reference) using each of the powdered peptides of SEQ ID NOS: 1 to 14. More specifically, a carrier was prepared in which each peptide was immobilized on the surface of micro beads (Luminex Corporation) after dissolving the powdered peptide in DMSO. Subsequently, plasma (heparin blood) obtained by blood collection from the patient was mixed with the immobilized carrier to react the antibody contained in the plasma with the peptide immobilized on the carrier. Then, the immobilized carrier was recovered after reaction; the antibody in the peripheral blood of the patient, bound to the peptide on the support was fluorescently labeled using a biotinylated anti-human antibody (Vector Corporation) and an avidinylated fluorescent dye (Streptavidin-PE, Invitrogen Corporation); and the fluorescence intensity (FIU) thereof was measured.
(§2) Similarly, for glioblastoma patients, the average of IFN-γ values or FIU was calculated in the 1 mg administration group (level I) and the 3 mg administration group (level II) to analyze the relationship between the dose and the immunological response.
(§3) Similarly, for glioblastoma patients, the averages of IFN-γ values and FIU obtained from the plasma or PBMC obtained at the end of each course from before administration to the 2nd course were calculated in the 1 mg administration group (level I) and the group of administration of 3 mg or more (level II) to analyze the relationship between the number of times of administration and the immunological response. The “Number of times of administration” in the table and the figure is the total number of times of administration at the end of each course, and the number of times of administration per course is 6.

[2] = system: CTL in PBMC of glioblastoma patients, HLA-A24 positive target cells presenting the administered peptide; assay: Measurement of CTL activity (IFN-γ) in PBMC of glioblastoma patients; settings: brain tumor; for CTL (IFN) Post Average: patients given this peptide
Experimental: (§4) PBMC was separated from the peripheral blood obtained by blood collection at the start of administration and at the end of each course for lyophilization, and CTL activity was measured using all PBMC by a known method (Hida N, Maeda Y, Katagiri K, Takasu H, Harada M, Itoh K., A simple culture protocol to detect peptide-specific cytotoxic T lymphocyte precursors in circulation. Cancer Immunol Immunotherapy 2002; 51: 219-228 (incorporated herein by reference)) after the end of administration. First, PBMC was cultured in the presence of each administered peptide for 2 weeks, and the PBMC was co-cultured with HLA-A24 positive target cells presenting the administered peptide via HLA molecules. Then, CTL activity was measured by measuring IFN-γ secreted into the culture supernatant by the reaction of CTL in PBMC with the target cells. The co-culture was performed under 4 independent conditions for each peptide; 4 values were obtained for each peptide for each PBMC obtained by each blood collection; and the total of the 4 values was used as a value (pg/mL) of IFN-γ for analysis to be described later.
as §2, §3

[3] = system: CTL in PBMC of HRPC patients, HLA-A24 positive target cells presenting the administered peptide; assay: Measurement of CTL activity (IFN-γ) in PBMC of HRPC patients; settings: for IFN post average/average no. of times of administration / CTL (IFN) Post Average: prostate cancer; for CTL (IFN) Post Average: patients given this peptide; for reactivity of CTL (and antibody) to the peptide, in words: HRPC patients
Experimental: as §4
(§5) For HRPC patients, the average of IFN-γ values or FIU was calculated in the 1 mg administration group (level I), the 3 mg administration group (level II), and the 5 mg administration group (level III) to analyze the relationship between the dose and the immunological response.
(§6) For HRPC patients, the averages of IFN-γ values and FIU obtained from the plasma or PBMC obtained at the end of each course from before administration to the 6th course were calculated in the 1 mg administration group and the group of administration of 3 mg or more to analyze the relationship between the number of times of administration and the immunological response. The “Number of times of administration” in the table and the figure is the total number of times of administration at the end of each course, and the number of times of administration per course is 6.
Since the initial peptide reselection was performed at the end of the 1st course, the averages of measurements after the reselection (values measured at the end of the 2nd course and later) are shown in the table and the figure. The “Number of times of administration” in the table and the figure is the total number of times of administration at the end of each course, and the number of times of administration per course is 6.

[4] = system: antibody to a peptide in the peripheral blood of HRPC patients; assay: Antibody to peptide in plasma (FIU, Luminex) of HRPC patients; settings: prostate cancer, patients given this peptide
Experimental: as §1, with “More” for “An antibody to a peptide in the peripheral blood of patient was measured using a multiplex technology provided by Luminex Corporation by a method as described in Japanese Patent No. 3960614 (incorporated herein by reference) using each of the powdered peptides of SEQ ID NOS: 1 to 14. More”
as §5, §6

Sequence	Ab Post Average (FIU after peptide administration) [1]	IFN post average/average no. of times of administration [2]	CTL (IFN) Post Average [2]	IFN post average/average no. of times of administration [3]	CTL (IFN) Post Average [3]	Ab Post Average (FIU after peptide administration) [4]	reactivity of CTL (and antibody) to the peptide, in words [3]
LYAWEPSFL [GP-106]	297 FIU	174	3,134 pg/mL	841	22,699 pg/mL	20,080 FIU	
HYRKWIKDTI [GP-109]				22	494 pg/mL	11,672 FIU	lowly increased the CTL activity
DYLRSVLEDF [GP-105]	3,969 FIU	180	2,706 pg/mL	229	5,274 pg/mL	13,096 FIU	
NYSVRYRPGL [GP-107]	302 FIU	8	151 pg/mL	27	370 pg/mL	2,888 FIU	lowly increased the CTL activity
TFDYLRSVL [GP-104]	920 FIU	187	2,986 pg/mL	144	3,629 pg/mL	11,538 FIU	
RYLTQETNKV [GP-111]	241 FIU	400	3,001 pg/mL	207	5,576 pg/mL	11,125 FIU	
AYDFLYNYL [GP-113]	67 FIU	357	5,139 pg/mL	67	600 pg/mL	207 FIU	low values of CTL activation
LYCESVHNF [GP-108]				72	2,209 pg/mL	19,039 FIU	
VYDYNCHVDL [GP-114]	297 FIU	82	821 pg/mL	547	4,592 pg/mL	10,557 FIU	
DYVREHKDNI [GP-101]				7	129 pg/mL	16,491 FIU	lower in the CTL reactivity than other peptides
DYSARWNEI [GP-112]	1,338 FIU	92	1,308 pg/mL	76	459 pg/mL	53 FIU	low values of CTL activation
TYSVSFDSL [GP-110]				365	2,190 pg/mL	310 FIU	increased the CTL value
HYTNASDGL [GP-103]				8	100 pg/mL	22 FIU	did not increase the reactivity of antibody and CTL
